Data on two compounds can be found in patent US20170326155A1, “NOVEL PHARM[…] FOR NEUROMUSCULAR CONTRACTURES” (Children's Hospital Medical Center, priority 2016, published 2017).

The test system of assay [1] is shoulder contractures following NBPI. As to the kind of experiment: Mouse model of neonatal brachial plexus injury (NBPI), muscle contracture formation. It counts as in vivo, mice. To be noted: for severity of shoulder contractures: single systemic dose following NBPI, 4 weeks post NBPI, compared to controls, preliminary experiment. An excerpt: Experimental Model: Unilateral brachial plexus injuries are surgically created at 5 days of age in mice. The immediate paralysis mimics that of the human condition, and can be modulated by different surgical techniques of nerve injury. Within 4 weeks after NBPI, muscle contractures form at the shoulder and elbow, replicating the human contractures. (Not shown.) Muscles can be harvested for analysis of growth and cellular behavior. The use of unilateral injuries preserves the contralateral limb as a control, minimizing the number of mice required.

Assay [2] concerns adult skeletal muscle regeneration. The settings on record: not tested in pediatric neuromuscular conditions; cited from earlier work.

As for `C[C@]12CC[C@H]3[C@@H](CCC4=CC(=O)CC[C@@H]43)[C@@H]1CC[C@@H]2O` [Nandrolone], the “contracture severity following NBPI” value in assay [1] (neonatal treatment, preliminary) is “lessened contracture severity”. Also, the figures for the “severity of shoulder contractures” value in assay [1] and in assay [1] (listed as nandrolone) were “lessened the severity of shoulder contractures” and “decreased the severity of the shoulder contracture”, respectively.
Consider `CCCCc1nc(Cl)c(CO)n1Cc1ccc(-c2ccccc2-c2nn[nH]n2)cc1` [losartan], for which the “adult skeletal muscle regeneration” value in assay [2] is reported as “improve adult skeletal muscle regeneration”.
